How the values were obtained:
Experiment in all cases: relative viability (nuclei count vs DMSO), 5 days (fraction); higher = more cells survive
Decitabine + Luminespib = compound: Nc1ncn([C@H]2C[C@H](O)[C@@H](CO)O2)c(=O)n1 [Decitabine] + CCNC(=O)c1noc(-c2cc(C(C)C)c(O)cc2O)c1-c1ccc(CN2CCOCC2)cc1 [Luminespib] (partner 0.01 µM)
Summary of the method: (§1)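 Relative viability is defined as nuclei in treated wells over nuclei in vehicle wells. Duplicate plates were run and medians reported. Lung cancer cell lines in 1536-well plates were dosed by pin tool one day after seeding, with one drug or with a fixed anchor-drug dose plus five library-drug doses (not always all listed) in √10 steps, and nuclei were counted after 5 days.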

Decitabine + Bortezomib = compound: Nc1ncn([C@H]2C[C@H](O)[C@@H](CO)O2)c(=O)n1 [Decitabine] + CC(C)C[C@H](NC(=O)[C@H](Cc1ccccc1)NC(=O)c1cnccn1)B(O)O [Bortezomib] (partner 0.002 µM)
Summary of the method: as §1

[1] = compound: O=C(C[C@H]1NCCC[C@@H]1O)Cn1cnc2cc(Br)c(Cl)cc2c1=O (racemic) [Halofuginone] + O=C(CCCCCCC(=O)Nc1ccccc1)NO [Vorinostat] (partner 1 µM)
Summary of the method: as §1

Cediranib + Luminespib = compound: COc1cc2c(Oc3ccc4[nH]c(C)cc4c3F)ncnc2cc1OCCCN1CCCC1 [Cediranib] + CCNC(=O)c1noc(-c2cc(C(C)C)c(O)cc2O)c1-c1ccc(CN2CCOCC2)cc1 [Luminespib] (partner 0.01 µM)
Summary of the method: as §1

Cell Line	relative viability (Decitabine + Luminespib; first compound 0.04 µM)	relative viability (Decitabine + Luminespib; first compound 0.1265 µM)	relative viability (Decitabine + Luminespib; first compound 0.4 µM)	relative viability (Decitabine + Luminespib; first compound 1.265 µM)	relative viability (Decitabine + Luminespib; first compound 4 µM)	relative viability (Decitabine + Bortezomib; first compound 0.04 µM)	relative viability (Decitabine + Bortezomib; first compound 0.1265 µM)	relative viability (Decitabine + Bortezomib; first compound 0.4 µM)	relative viability (Decitabine + Bortezomib; first compound 1.265 µM)	relative viability (Decitabine + Bortezomib; first compound 4 µM)	relative viability ([1]; first compound 0.001 µM)	relative viability ([1]; first compound 0.003162 µM)	relative viability ([1]; first compound 0.01 µM)	relative viability ([1]; first compound 0.03162 µM)	relative viability ([1]; first compound 0.1 µM)	relative viability (Cediranib + Luminespib; first compound 0.04 µM)	relative viability (Cediranib + Luminespib; first compound 0.1265 µM)	relative viability (Cediranib + Luminespib; first compound 0.4 µM)	relative viability (Cediranib + Luminespib; first compound 1.265 µM)	relative viability (Cediranib + Luminespib; first compound 4 µM)
NCI-H1915	0.331	0.465	0.267	0.186	0.219	0.379	0.279	0.197	0.183	0.184	0.531	0.554	0.561	0.472	0.511	0.972	0.759	0.787	0.813	0.875
NCI-H1975	0.198	0.161	0.162	0.174	0.142	0.227	0.268	0.178	0.168	0.169	0.744	0.697	0.441	0.47	0.179	0.166	0.14	0.207	0.194	0.196
NCI-H1993	0.725	0.826	0.787	0.696	0.674	0.925	0.898	0.839	0.777	0.672	1.1	0.852	0.809	0.0067	0.576	0.637	0.901	0.906	0.851	0.597
NCI-H2009	0.929	0.68	0.54	0.328	0.348	0.765	0.571	0.301	0.305	0.243	0.86	0.703	0.76	0.703	0.462	1.09	0.97	0.995	1.12	1.05
NCI-H2023	0.317	0.386	0.153	0.138	0.14	0.628	0.61	0.206	0.206	0.155	0.81	0.64	0.56	0.453	0.0822	0.844	0.639	0.732	0.405	0.53
NCI-H2085	0.436	0.404	0.323	0.372	0.344	0.751	0.801	0.58	0.451	0.366	0.817	0.805	0.759	0.815	0.748	0.506	0.406	0.42	0.421	0.478
NCI-H2087	0.172	0.175	0.204	0.135	0.158	0.603	0.55	0.51	0.33	0.36	0.72	0.713	0.773	0.723	0.484	0.194	0.191	0.191	0.136	0.144
NCI-H2126	0.811	0.723	0.547	0.492	0.485	0.984	0.975	0.648	0.655	0.591	0.903	0.762	0.784	0.74	0.562	0.904	1.03	0.873	0.752	0.816

— the supplement of paper PMC10307832
